Assay [1] deals with T1, serotonin (5-HT) reuptake (Rattus norvegicus, UniProt P31652).
T1 construct: synaptosomes are freshly isolated from areas of the rat brain; from tissue; host or cells: rat brain synaptosomes (P2 fraction)
Put plainly: Inhibition of serotonin (5HT) reuptake in synaptosomes from rat brain. The format is biochemical. To be noted: test concentration of 10 μM; read-out: 5-HT (inhibition of reuptake of serotonin, % inhibition). A digest of the protocol: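 Compounds screened at 10 μM and reported as percent inhibition of serotonin uptake. Uptake measured in a freshly prepared P2 synaptosomal fraction from rat brain.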

A further assay concerns the target T2, human μ opiate receptor (Homo sapiens, UniProt P35372).
T2 construct: purchased PerkinElmer Life Sciences, Zaventem, Belgium RB-HOM; host or cells: CHO-K1 cells (membrane preparation)
Put plainly: Affinity for the human μ opiate receptor ([3H]-naloxone displacement, CHO-K1 receptor membrane preparation, SPA). The assay is classed as binding. To be noted: test concentration of 1 μM; read-out: μ (binding on the μ opioid receptor, % inhibition). A digest of the protocol:
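Displacement of 1 nmol/l [3H]-naloxone measured by SPA counting after 90 min at room temperature, using human μ receptor CHO-K1 membrane preparation in Tris-HCl buffer with 0.06% BSA. Test substances at 1 μmol/l give % inhibition; dilution series yield IC50, then Ki (Cheng-Prusoff); non-specific binding with 100 μmol/l naloxone.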

T2 sequence (P35372 whole entry): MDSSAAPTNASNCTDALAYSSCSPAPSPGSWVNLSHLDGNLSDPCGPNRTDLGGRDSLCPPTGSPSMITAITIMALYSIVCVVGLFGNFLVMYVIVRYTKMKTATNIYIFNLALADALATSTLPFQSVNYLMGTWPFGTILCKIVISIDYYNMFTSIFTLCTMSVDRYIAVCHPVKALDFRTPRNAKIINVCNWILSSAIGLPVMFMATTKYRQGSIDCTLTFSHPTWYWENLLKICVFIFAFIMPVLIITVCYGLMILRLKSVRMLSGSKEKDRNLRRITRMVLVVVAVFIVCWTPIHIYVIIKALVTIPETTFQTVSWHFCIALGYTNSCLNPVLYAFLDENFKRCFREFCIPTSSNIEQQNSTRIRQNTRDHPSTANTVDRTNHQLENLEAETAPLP
T1 sequence (P31652 whole entry): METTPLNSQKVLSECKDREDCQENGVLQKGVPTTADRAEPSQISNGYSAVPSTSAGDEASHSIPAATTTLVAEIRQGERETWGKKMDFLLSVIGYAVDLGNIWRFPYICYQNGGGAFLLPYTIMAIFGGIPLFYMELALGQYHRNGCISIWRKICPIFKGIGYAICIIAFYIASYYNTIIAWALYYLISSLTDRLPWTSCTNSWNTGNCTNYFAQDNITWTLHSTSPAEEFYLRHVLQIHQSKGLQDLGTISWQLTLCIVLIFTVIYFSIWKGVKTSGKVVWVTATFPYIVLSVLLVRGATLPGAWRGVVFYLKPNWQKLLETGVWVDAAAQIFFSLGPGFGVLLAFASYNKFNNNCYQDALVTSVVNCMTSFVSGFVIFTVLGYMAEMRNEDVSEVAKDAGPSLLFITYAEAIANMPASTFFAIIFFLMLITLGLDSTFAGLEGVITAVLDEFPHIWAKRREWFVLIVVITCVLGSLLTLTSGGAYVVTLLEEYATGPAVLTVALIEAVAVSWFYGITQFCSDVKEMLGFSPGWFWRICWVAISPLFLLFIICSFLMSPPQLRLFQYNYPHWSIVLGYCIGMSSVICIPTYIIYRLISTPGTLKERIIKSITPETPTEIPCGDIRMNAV

One may read the inhibition as the share of the control response that was lost under treatment. For `COc1cc(C)c(S(=O)(=O)N(C)CCOCC(=O)NCC2CCC(C(c3cccs3)N(C)C)CC2)c(C)c1C` (stereo not shown) [Example 35, N-((4-((dimethylamino)(thiophen-2-yl)methyl)cyclohexyl)methyl)-2-(2-(4-methoxy-N,2,3,6-tetramethylphenylsulfonamido)ethoxy)acetamide], the inhibition at 10 µM in assay [1] was 84%. Further, at human μ opiate receptor, the inhibition at 1 µM was 96%.
Consider `COc1ccc(S(=O)(=O)N2CCCCC2COCC(=O)NCC2CCC(C(c3cccs3)N(C)C)CC2)c(OC)c1` (stereo not shown) [Example 49, 2-((1-(2,4-dimethoxyphenylsulfonyl)piperidin-2-yl)methoxy)-N-((4-((dimethylamino)(thiophen-2-yl)methyl)cyclohexyl)methyl)acetamide], for which the inhibition at 10 µM in assay [1] came out at 86%. For the same compound, the inhibition at 1 µM at human μ opiate receptor amounted to 96%.
The matching figures for `COc1cc(C)c(S(=O)(=O)N2CCC(OCC(=O)NC3CCC(C(c4cccs4)N(C)C)CC3)C2)c(C)c1C` (stereo not shown) [Example 43, N-(4-((dimethylamino)(thiophen-2-yl)methyl)cyclohexyl)-2-(1-(4-methoxy-2,3,6-trimethylphenylsulfonyl)pyrrolidin-3-yloxy)acetamide]: 90% and 96%.
For `COc1ccc(S(=O)(=O)N2Cc3ccccc3CC2COCC(=O)NC2CCC(C(c3cccs3)N(C)C)CC2)cc1` (stereo not shown) [Example 47, N-(4-((dimethylamino)(thiophen-2-yl)methyl)cyclohexyl)-2-((2-(4-methoxyphenylsulfonyl)-1,2,3,4-tetrahydroisoquinolin-3-yl)methoxy)acetamide], in that order: 98% and 96%.
For `Cc1cc(C)c(S(=O)(=O)N2CCC(OCC(=O)NCCC3CCC(C(c4cccs4)N(C)C)CC3)C2)c(C)c1` (stereo not shown) [Example 71, N-(2-(4-((dimethylamino)(thiophen-2-yl)methyl)cyclohexyl)ethyl)-2-(1-(mesitylsulfonyl)pyrrolidin-3-yloxy)acetamide], in that order: 79% and 94%.
As for `COc1ccc(S(=O)(=O)N(C)CCOCC(=O)NC2CCC(C(c3cccs3)N(C)C)CC2)cc1` (stereo not shown) [Example 73, N-(4-((dimethylamino)(thiophen-2-yl)methyl)cyclohexyl)-2-(2-(4-methoxy-N-methylphenylsulfonamido)ethoxy)acetamide], the inhibition at 10 µM in assay [1] was found to be 77%. The inhibition at 1 µM at human μ opiate receptor was determined as 90%.
For `COc1cc(C)c(S(=O)(=O)N2CCC(OCC(=O)NCC3CCC(C(c4ccccc4)N(C)C)CC3)C2)c(C)c1C` (stereo not shown) [Example 44, N-((4-((dimethylamino)(phenyl)methyl)cyclohexyl)methyl)-2-(1-(4-methoxy-2,3,6-trimethylphenylsulfonyl)pyrrolidin-3-yloxy)acetamide], in that order: 94% and 96%.
The matching figures for `COc1cc(C)c(S(=O)(=O)N2CCC(CCOCC(=O)NC3CCC(C(c4cccs4)N(C)C)CC3)CC2)c(C)c1C` (stereo not shown) [Example 5, N-(4-((dimethylamino)(thiophen-2-yl)methyl)cyclohexyl)-2-(2-(1-(4-methoxy-2,3,6-trimethylphenylsulfonyl)piperidin-4-yl)ethoxy)acetamide]: 87% and 99%.
Consider `COc1ccc(S(=O)(=O)N2CCCCC2CCOCC(=O)NCCC2CCC(C(c3cccs3)N(C)C)CC2)cc1` (stereo not shown) [Example 46, N-(2-(4-((dimethylamino)(thiophen-2-yl)methyl)cyclohexyl)ethyl)-2-(2-(1-(4-methoxyphenylsulfonyl)piperidin-2-yl)ethoxy)acetamide], for which, in assay [1], the inhibition at 10 µM was 96%. The inhibition at 1 µM on human μ opiate receptor amounted to 96%.
Turning to `CN(C)C(c1cccc(F)c1)C1CCC(CNC(=O)COCCN(C)S(=O)(=O)c2c(Cl)cccc2Cl)CC1` (stereo not shown) [Example 72, 2-(2-(2,6-dichloro-N-methylphenylsulfonamido)ethoxy)-N-((4-((dimethylamino)(3-fluorophenyl)methyl)cyclohexyl)methyl)acetamide], the inhibition at 10 µM in assay [1] was found to be 84%. The inhibition at 1 µM on human μ opiate receptor is 92%.
For `COc1ccc(S(=O)(=O)N2CCCCC2CCOCC(=O)NCC2CCC(C(c3ccccc3)N(C)C)CC2)cc1` (stereo not shown) [Example 89, N-((4-((dimethylamino)(phenyl)methyl)cyclohexyl)methyl)-2-(2-(1-(4-methoxyphenylsulfonyl)piperidin-2-yl)ethoxy)acetamide], in that order: 92% and 93%.
